Earlier results in patent EP0890570A2, “Tertiary alkyl primary amines and process for preparing the same” (ROHM AND HAAS COMPANY, priority 1997, dated 1999).

Details: conventional comparison amines, stated without source or method

pKa	SMILES
10	CC(C)CCCCCCN [iso-nonylamine]
10	CCCCCCCCCN [n-nonylamine]
